In patent publication US20200247897A1, “THERAPEUTIC ANTIBODIES BASED ON MUTATED IGG HEXAMERS” (GENMAB B.V., priority 2017, published 2020):

System: panel of 235 cell lines representing 14 tumor lineages
Assay: ATPlite growth inhibition screening of a human cancer cell line panel (Horizon Discovery)
Type: cell-based
Experimental: A 72 hour ATPlite assay (except for DLD-1 and HCT116 cell lines, for which a 120 hour assay was performed) with growth inhibition analysis was performed in two parts at Horizon Discovery Ltd, UK. Samples were tested as four replicates in 384-well assay plates. Serial dilution series of antibody, starting from 0.072 μM final concentration was used for all tested cell lines. For TRAIL (Invitrogen; Cat # PHC1634) serial dilution series starting from 0.01 μM final concentration for the cell lines tested in the first part and 0.17 μM final concentration for the cell lines tested in the second part of the screening was used.

[1] = 59M, ovary cancer, screening #1
[2] = 769-P, kidney cancer, screening #2
[3] = 786-0, kidney cancer, screening #2
[4] = 5637, bladder cancer, screening #2
[5] = A172, neural tissue cancer, screening #2
[6] = ACHN, kidney cancer, screening #2
[7] = CAL-54, kidney cancer, screening #1
[8] = COLO-783, melanoma, screening #1
[9] = COR-L23-CPR, NSCLC, screening #1
[10] = COV434, ovary cancer, screening #1
[11] = COV644, ovary cancer, screening #1
[12] = G-402, kidney cancer, screening #2
[13] = HCC1937, breast cancer (TNBC), screening #2
[14] = HT-1197, bladder cancer, screening #2
[15] = HT-1376, bladder cancer, screening #2
[16] = Hs 294T, melanoma, screening #1
[17] = HuP-T3, pancreatic cancer, screening #1
[18] = J82, bladder cancer, screening #1
[19] = JHOM-1, ovary cancer, screening #1

Q: For “TRAIL: natural DR5 ligand, recombinant human TRAIL/APO-2L”, which IC50 [1] is on record?
A: The IC50 was 0.049 nM.

Q: And the “Max Inhibition” value [1]?
A: The value was 98.5%.

Q: And the IC50 [2]?
A: The IC50 was 1.94 nM.

Q: What about the “Max Inhibition” value [2] of the same substance?
A: The value was 39.4%.

Q: And the IC50 [3]?
A: The IC50 was 288 nM.

Q: And the “Max Inhibition” value [3]?
A: The value was 2.6%.

Q: What about the IC50 [4] of the same substance?
A: Its IC50 is 0.06 nM.

Q: What about the “Max Inhibition” value [4] of the same substance?
A: The value was 99.1%.

Q: And the IC50 [5]?
A: Its IC50 is 0.029 nM.

Q: What about the “Max Inhibition” value [5] of the same substance?
A: Its value is 98.2%.

Q: What about the “Max Inhibition” value (A375, melanoma, screening #1) of the same substance?
A: Its value is 47.1%.

Q: What about the IC50 (A498, kidney cancer, screening #2) of the same substance?
A: The IC50 was 0.079 nM.

Q: And the IC50 (A704, kidney cancer, screening #1)?
A: Its IC50 is 3.44 nM.

Q: And the IC50 [6]?
A: The IC50 was 0.356 nM.

Q: What about the “Max Inhibition” value [6] of the same substance?
A: Its value is 32.4%.

Q: What about the “Max Inhibition” value (BEN, NSCLC, screening #1) of the same substance?
A: The value was 8.1%.

Q: And the IC50 (BT-20, breast cancer (TNBC), screening #2)?
A: The IC50 was 0.089 nM.

Q: What about the IC50 (BT-549, breast cancer (TNBC), screening #2) of the same substance?
A: The IC50 was 0.285 nM.

Q: And the “Max Inhibition” value (BxPC-3, pancreatic cancer, screening #1)?
A: Its value is 46.5%.

Q: And the “Max Inhibition” value (CAKI-2, kidney cancer, screening #1)?
A: Its value is 5.7%.

Q: And the “Max Inhibition” value (CAL-12T, NSCLC, screening #1)?
A: Its value is 11.9%.

Q: What about the IC50 [7] of the same substance?
A: The IC50 was 0.268 nM.

Q: What about the “Max Inhibition” value [7] of the same substance?
A: The value was 71.6%.

Q: And the “Max Inhibition” value (CAPAN-2, pancreatic cancer, screening #1)?
A: Its value is 4.8%.

Q: What about the “Max Inhibition” value (CFPAC-1, pancreatic cancer, screening #1) of the same substance?
A: The value was 13.2%.

Q: What about the IC50 (CL-11, colorectal cancer, screening #1) of the same substance?
A: The IC50 was 1.32 nM.

Q: And the IC50 (CL-34, colorectal cancer, screening #1)?
A: Its IC50 is 0.024 nM.

Q: What about the IC50 (CL-40, colorectal cancer, screening #1) of the same substance?
A: The IC50 was 1.98 nM.

Q: What about the “Max Inhibition” value (COLO858, melanoma, screening #1) of the same substance?
A: The value was 12.6%.

Q: And the IC50 (COLO-201, colorectal cancer, screening #1)?
A: The IC50 was 0.168 nM.

Q: What about the IC50 (COLO-205, colorectal cancer, screening #1) of the same substance?
A: The IC50 was 2.27 nM.

Q: What about the IC50 (COLO-206F, colorectal cancer, screening #1) of the same substance?
A: Its IC50 is 0.146 nM.

Q: And the “Max Inhibition” value (COLO-679, melanoma, screening #1)?
A: Its value is 24.9%.

Q: And the “Max Inhibition” value (COLO-699, NSCLC, screening #1)?
A: The value was 2.8%.

Q: What about the IC50 [8] of the same substance?
A: The IC50 was 0.224 nM.

Q: What about the “Max Inhibition” value [8] of the same substance?
A: The value was 80.9%.

Q: What about the “Max Inhibition” value (COLO-800, melanoma, screening #1) of the same substance?
A: The value was 33.5%.

Q: And the “Max Inhibition” value (COLO-818, melanoma, screening #1)?
A: Its value is 7.8%.

Q: And the “Max Inhibition” value (COLO-849, melanoma, screening #1)?
A: The value was 17.6%.

Q: What about the IC50 [9] of the same substance?
A: The IC50 was 5.48 nM.

Q: What about the “Max Inhibition” value [9] of the same substance?
A: Its value is 58.4%.

Q: What about the “Max Inhibition” value (COR-L105, NSCLC, screening #1) of the same substance?
A: Its value is 35.7%.

Q: What about the IC50 [10] of the same substance?
A: The IC50 was 0.395 nM.

Q: And the “Max Inhibition” value [10]?
A: Its value is 73.1%.

Q: And the “Max Inhibition” value (COV504, ovary cancer, screening #1)?
A: Its value is 11.7%.

Q: And the IC50 [11]?
A: Its IC50 is 0.271 nM.

Q: What about the “Max Inhibition” value [11] of the same substance?
A: Its value is 74.9%.

Q: What about the “Max Inhibition” value (Calu-1, NSCLC, screening #1) of the same substance?
A: Its value is 22.0%.

Q: And the IC50 (DBTRG-05MG, neural tissue cancer, screening #2)?
A: Its IC50 is 0.087 nM.

Q: What about the IC50 (DLD-1, colorectal cancer, screening #1) of the same substance?
A: Its IC50 is 3.95 nM.

Q: And the IC50 (DLD-1_BRCA2 (−/−), colorectal cancer, screening #1)?
A: Its IC50 is 0.516 nM.

Q: And the IC50 (DU-4475, breast cancer (TNBC), screening #2)?
A: The IC50 was 0.079 nM.

Q: What about the IC50 (DV-90, NSCLC, screening #1) of the same substance?
A: Its IC50 is 1.19 nM.

Q: What about the “Max Inhibition” value (DV-90, NSCLC, screening #1) of the same substance?
A: Its value is 96.1%.

Q: What about the “Max Inhibition” value (EPLC-272H, NSCLC, screening #1) of the same substance?
A: The value was 51.7%.

Q: And the IC50 (FTC-238, head and neck cancer, screening #1)?
A: The IC50 was 3.92 nM.

Q: And the IC50 (G-401, kidney cancer, screening #2)?
A: Its IC50 is 0.068 nM.

Q: And the IC50 [12]?
A: Its IC50 is 0.173 nM.

Q: And the “Max Inhibition” value [12]?
A: Its value is 15.0%.

Q: What about the IC50 (GP2D, colorectal cancer, screening #1) of the same substance?
A: The IC50 was 0.003 nM.

Q: What about the IC50 (GSU, gastric cancer, screening #1) of the same substance?
A: The IC50 was 0.454 nM.

Q: And the IC50 (H4, neural tissue cancer, screening #2)?
A: Its IC50 is 0.007 nM.

Q: What about the IC50 (HCC38, breast cancer (TNBC), screening #2) of the same substance?
A: Its IC50 is 0.08 nM.

Q: And the IC50 (HCC70, breast cancer (TNBC), screening #2)?
A: Its IC50 is 347 nM.

Q: And the IC50 (HCC1187, breast cancer (TNBC), screening #2)?
A: Its IC50 is 0.066 nM.

Q: And the IC50 (HCC1806, breast cancer (TNBC), screening #2)?
A: Its IC50 is 0.05 nM.

Q: And the IC50 [13]?
A: Its IC50 is 0.647 nM.

Q: And the “Max Inhibition” value [13]?
A: Its value is 28.5%.

Q: And the IC50 (HCT-15, colorectal cancer, screening #1)?
A: Its IC50 is 0.129 nM.

Q: What about the IC50 (HCT-116_ARID1A (Q456*/Q456*), colorectal cancer, screening #1) of the same substance?
A: Its IC50 is 10.5 nM.

Q: What about the IC50 (HCT-116_KRAS (+/−), colorectal cancer, screening #1) of the same substance?
A: Its IC50 is 0.253 nM.

Q: What about the IC50 (HCT-116_PIK3A (+/−)KO mt H1047R, colorectal cancer, screening #1) of the same substance?
A: Its IC50 is 1.25 nM.

Q: And the IC50 (HEC-108, endometrial cancer, screening #1)?
A: Its IC50 is 1.48 nM.

Q: And the IC50 (HEC-265, endometrial cancer, screening #1)?
A: Its IC50 is 0.021 nM.

Q: And the “Max Inhibition” value (HLC-1, NSCLC, screening #1)?
A: The value was 32.6%.

Q: What about the IC50 (HLE, liver cancer, screening #1) of the same substance?
A: Its IC50 is 8.36 nM.

Q: And the IC50 (HMC-1-8, breast cancer (TNBC), screening #2)?
A: The IC50 was 0.232 nM.

Q: What about the “Max Inhibition” value (HMCB, melanoma, screening #1) of the same substance?
A: Its value is 1.0%.

Q: And the “Max Inhibition” value (HOP-62, NSCLC, screening #1)?
A: The value was 55.6%.

Q: What about the “Max Inhibition” value (HPAF-II, pancreatic cancer, screening #1) of the same substance?
A: The value was 13.3%.

Q: And the IC50 (HRT-186, colorectal cancer, screening #1)?
A: The IC50 was 9.24 nM.

Q: And the IC50 (HT55, colorectal cancer, screening #1)?
A: The IC50 was 0.11 nM.

Q: What about the IC50 (HT-115, colorectal cancer, screening #1) of the same substance?
A: The IC50 was 0.107 nM.

Q: And the IC50 [14]?
A: Its IC50 is 0.167 nM.

Q: And the “Max Inhibition” value [14]?
A: The value was 31.8%.

Q: What about the IC50 [15] of the same substance?
A: Its IC50 is 160 nM.

Q: What about the “Max Inhibition” value [15] of the same substance?
A: The value was 10.6%.

Q: And the IC50 [16]?
A: The IC50 was 0.019 nM.

Q: What about the “Max Inhibition” value [16] of the same substance?
A: The value was 91.1%.

Q: And the “Max Inhibition” value (Hs 936.T, melanoma, screening #1)?
A: Its value is 20.7%.

Q: And the IC50 [17]?
A: The IC50 was 0.223 nM.

Q: And the “Max Inhibition” value [17]?
A: The value was 88.4%.

Q: And the “Max Inhibition” value (IGR-1, melanoma, screening #1)?
A: The value was 23.3%.

Q: What about the “Max Inhibition” value (IGR-37, melanoma, screening #1) of the same substance?
A: The value was 18.0%.

Q: What about the “Max Inhibition” value (IGR-39, melanoma, screening #1) of the same substance?
A: The value was 20.1%.

Q: And the “Max Inhibition” value (IPC-298, melanoma, screening #1)?
A: The value was 5.7%.

Q: What about the IC50 [18] of the same substance?
A: Its IC50 is 33.6 nM.

Q: What about the “Max Inhibition” value [18] of the same substance?
A: Its value is 11.5%.

Q: What about the “Max Inhibition” value (JHOC-5, ovary cancer, screening #1) of the same substance?
A: The value was 18.4%.

Q: What about the IC50 [19] of the same substance?
A: Its IC50 is 0.596 nM.

Q: And the “Max Inhibition” value [19]?
A: The value was 58.1%.

Q: What about the “Max Inhibition” value (JHOM-2B, ovary cancer, screening #1) of the same substance?
A: The value was 21.7%.

Q: What about the “Max Inhibition” value (JHOS-4, ovary cancer, screening #1) of the same substance?
A: The value was 12.5%.

Q: And the IC50 (JHUEM-2, endometrial cancer, screening #1)?
A: The IC50 was 0.165 nM.

Q: And the “Max Inhibition” value (KLM-1, pancreatic cancer, screening #1)?
A: Its value is 12.7%.

Q: What about the IC50 (KNS-81, neural tissue cancer, screening #2) of the same substance?
A: The IC50 was 0.013 nM.

Q: And the “Max Inhibition” value (KP-2, pancreatic cancer, screening #1)?
A: Its value is 3.9%.

Q: What about the “Max Inhibition” value (KP-3, pancreatic cancer, screening #1) of the same substance?
A: The value was 23.5%.

Q: And the “Max Inhibition” value (KP-4, pancreatic cancer, screening #1)?
A: The value was 23.6%.
